Changes are numbered by the printed parent chain.
Assays:
[1] = from C=CCOCc1cc(NC(=O)OC(C)(C)C)cc(Nc2nccc(-c3cccc(COCC=C)c3)n2)c1; rcm bond; Zhan Catalyst 1B; dichloromethane; 6.66 mM; 50.0 °C; 3.0 h
Ab1 (h) = molecular target: T1, Ab1 (h) (Homo sapiens, UniProt P00519); assay: Radioisotope labeling kinase assay (Eurofins), Ab1; format: biochemical; settings: 1 μM compound; read-out: Inhibitory activity per unit concentration/Activity % Ab1 (h)
T1 construct: purchased Eurofins
Description: (§1) An activity to a human recombinant protein kinase of a series of compounds was determined by a radioisotope labeling method, which was provided by Eurofins Company. A compound to be detected was mixed with a corresponding protein kinase buffer (20 mM propyl sulfonate (MOPS, […].), 1 mM EDTA, 0.10 β-mercaptoethanol, 0.010 Brij-35, […], and 1 mg/mL BSA), the mixture was added into a reaction system (100 μM reaction substrate […], 8 mM MOPS with a pH value of 7.0, 10 mM MgAcetate, 0.2 mM EDTA, and a certain concentration of γ-^33P-ATP). After adding an MgATP composite solution, the reaction was started at room temperature for 40 minutes, and the reaction was terminated by adding 5 μl of […] solution. Then, 10 μl of reaction solution was dropwise added onto a filter and washed with 75 mM phosphoric acid solution for three times, 5 minutes each time, then washed with methanol once again, and dried and subjected to scintillation counting.

BTK (h) = molecular target: T2, BTK (h) (Homo sapiens, UniProt Q06187); assay: Radioisotope labeling kinase assay (Eurofins), BTK; format: biochemical; settings: 1 μM compound; read-out: Inhibitory activity per unit concentration/Activity % BTK (h)
T2 construct: purchased Eurofins
T2 sequence (Q06187 whole entry): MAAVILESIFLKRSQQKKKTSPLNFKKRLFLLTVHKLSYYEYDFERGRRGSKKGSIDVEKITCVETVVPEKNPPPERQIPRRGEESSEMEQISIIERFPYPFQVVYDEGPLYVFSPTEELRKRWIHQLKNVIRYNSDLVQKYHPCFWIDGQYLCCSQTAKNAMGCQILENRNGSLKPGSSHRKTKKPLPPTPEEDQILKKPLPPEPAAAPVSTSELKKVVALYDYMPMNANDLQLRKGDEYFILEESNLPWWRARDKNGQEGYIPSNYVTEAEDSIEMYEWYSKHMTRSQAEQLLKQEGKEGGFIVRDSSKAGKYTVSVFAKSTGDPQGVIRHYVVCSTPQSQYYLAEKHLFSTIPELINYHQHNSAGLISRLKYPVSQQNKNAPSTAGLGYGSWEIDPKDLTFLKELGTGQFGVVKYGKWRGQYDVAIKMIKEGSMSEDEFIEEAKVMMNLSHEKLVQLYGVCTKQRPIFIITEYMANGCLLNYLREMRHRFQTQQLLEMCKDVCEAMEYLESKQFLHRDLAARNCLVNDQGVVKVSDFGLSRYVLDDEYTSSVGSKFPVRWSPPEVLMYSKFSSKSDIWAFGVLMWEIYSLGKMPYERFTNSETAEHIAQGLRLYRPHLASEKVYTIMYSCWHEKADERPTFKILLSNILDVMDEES
Description: as §1

Flt3 (D835Y) (h) = molecular target: T3, Flt3 (D835Y) (h) (Homo sapiens, UniProt P36888, D835Y); assay: Radioisotope labeling kinase assay (Eurofins), Flt3 (D835Y); format: biochemical; settings: 1 μM compound; read-out: Inhibitory activity per unit concentration/Activity % Flt3 (D835Y) (h)
T3 construct: purchased Eurofins
T3 sequence (P36888 27-993 D835Y): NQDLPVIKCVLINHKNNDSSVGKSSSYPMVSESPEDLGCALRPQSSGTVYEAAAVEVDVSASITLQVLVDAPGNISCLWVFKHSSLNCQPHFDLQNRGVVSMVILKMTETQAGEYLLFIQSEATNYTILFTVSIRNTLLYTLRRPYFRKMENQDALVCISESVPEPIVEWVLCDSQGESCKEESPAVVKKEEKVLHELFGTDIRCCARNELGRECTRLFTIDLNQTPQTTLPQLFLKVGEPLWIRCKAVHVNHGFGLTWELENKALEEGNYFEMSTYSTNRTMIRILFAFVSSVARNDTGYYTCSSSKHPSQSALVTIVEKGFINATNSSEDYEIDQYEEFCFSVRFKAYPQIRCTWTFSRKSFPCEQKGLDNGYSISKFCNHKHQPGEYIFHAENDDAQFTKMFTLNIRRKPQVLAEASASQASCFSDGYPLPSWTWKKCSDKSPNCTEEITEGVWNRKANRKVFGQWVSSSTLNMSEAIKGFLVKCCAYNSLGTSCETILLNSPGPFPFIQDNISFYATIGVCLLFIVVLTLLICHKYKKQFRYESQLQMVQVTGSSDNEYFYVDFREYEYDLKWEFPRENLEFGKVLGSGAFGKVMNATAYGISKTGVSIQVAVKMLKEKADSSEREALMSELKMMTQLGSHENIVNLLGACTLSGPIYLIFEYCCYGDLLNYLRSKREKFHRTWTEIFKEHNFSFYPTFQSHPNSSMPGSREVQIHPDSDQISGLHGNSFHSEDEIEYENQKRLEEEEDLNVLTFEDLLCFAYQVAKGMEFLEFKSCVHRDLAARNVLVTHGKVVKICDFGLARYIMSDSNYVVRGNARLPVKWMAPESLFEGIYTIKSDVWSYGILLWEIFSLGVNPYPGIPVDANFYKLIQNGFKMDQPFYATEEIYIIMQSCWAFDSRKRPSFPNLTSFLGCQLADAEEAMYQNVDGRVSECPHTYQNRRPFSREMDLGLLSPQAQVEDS
Description: as §1

Flt3 (h) = molecular target: T4, Flt3 (h) (Homo sapiens, UniProt P36888); assay: Radioisotope labeling kinase assay (Eurofins), Flt3; format: biochemical; settings: 1 μM compound; read-out: Inhibitory activity per unit concentration/Activity % Flt3 (h)
T4 construct: purchased Eurofins
T4 sequence (P36888 27-993): T3 sequence (P36888 27-993 D835Y) with Y809D
Description: as §1

JAK3 (h) = molecular target: T5, JAK3 (h) (Homo sapiens, UniProt P52333); assay: Radioisotope labeling kinase assay (Eurofins), JAK3; format: biochemical; settings: 1 μM compound; read-out: Inhibitory activity per unit concentration/Activity % JAK3 (h)
T5 construct: purchased Eurofins
T5 sequence (P52333 1-1124): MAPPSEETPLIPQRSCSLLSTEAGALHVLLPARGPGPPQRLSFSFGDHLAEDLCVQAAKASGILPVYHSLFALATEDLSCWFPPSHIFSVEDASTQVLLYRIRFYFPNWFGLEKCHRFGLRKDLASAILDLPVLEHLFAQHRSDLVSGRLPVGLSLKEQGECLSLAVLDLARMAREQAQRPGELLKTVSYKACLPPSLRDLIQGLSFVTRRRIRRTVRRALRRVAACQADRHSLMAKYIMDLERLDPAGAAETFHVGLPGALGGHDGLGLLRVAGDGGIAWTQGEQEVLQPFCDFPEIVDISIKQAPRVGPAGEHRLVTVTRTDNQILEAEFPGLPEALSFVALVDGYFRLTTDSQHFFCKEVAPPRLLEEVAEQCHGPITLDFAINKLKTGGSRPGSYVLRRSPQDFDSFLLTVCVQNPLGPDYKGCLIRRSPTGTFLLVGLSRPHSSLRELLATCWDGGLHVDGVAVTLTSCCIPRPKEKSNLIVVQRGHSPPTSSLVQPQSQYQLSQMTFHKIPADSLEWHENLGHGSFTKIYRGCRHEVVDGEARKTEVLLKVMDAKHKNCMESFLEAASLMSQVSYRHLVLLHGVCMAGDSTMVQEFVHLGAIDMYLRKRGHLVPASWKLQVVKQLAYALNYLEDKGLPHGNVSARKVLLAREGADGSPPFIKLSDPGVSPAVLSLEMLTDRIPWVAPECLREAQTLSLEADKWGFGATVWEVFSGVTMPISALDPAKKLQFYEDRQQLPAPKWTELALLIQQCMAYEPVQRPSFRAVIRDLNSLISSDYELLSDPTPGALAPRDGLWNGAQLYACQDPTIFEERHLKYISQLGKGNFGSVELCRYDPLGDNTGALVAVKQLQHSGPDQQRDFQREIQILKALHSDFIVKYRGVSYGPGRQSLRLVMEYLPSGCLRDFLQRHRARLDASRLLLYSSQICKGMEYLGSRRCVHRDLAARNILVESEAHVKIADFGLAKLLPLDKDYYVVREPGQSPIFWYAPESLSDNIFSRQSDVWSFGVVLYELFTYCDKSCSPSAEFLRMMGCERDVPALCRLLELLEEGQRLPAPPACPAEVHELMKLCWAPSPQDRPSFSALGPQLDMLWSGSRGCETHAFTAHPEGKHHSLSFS
Description: as §1

T1 sequence (P00519 whole entry): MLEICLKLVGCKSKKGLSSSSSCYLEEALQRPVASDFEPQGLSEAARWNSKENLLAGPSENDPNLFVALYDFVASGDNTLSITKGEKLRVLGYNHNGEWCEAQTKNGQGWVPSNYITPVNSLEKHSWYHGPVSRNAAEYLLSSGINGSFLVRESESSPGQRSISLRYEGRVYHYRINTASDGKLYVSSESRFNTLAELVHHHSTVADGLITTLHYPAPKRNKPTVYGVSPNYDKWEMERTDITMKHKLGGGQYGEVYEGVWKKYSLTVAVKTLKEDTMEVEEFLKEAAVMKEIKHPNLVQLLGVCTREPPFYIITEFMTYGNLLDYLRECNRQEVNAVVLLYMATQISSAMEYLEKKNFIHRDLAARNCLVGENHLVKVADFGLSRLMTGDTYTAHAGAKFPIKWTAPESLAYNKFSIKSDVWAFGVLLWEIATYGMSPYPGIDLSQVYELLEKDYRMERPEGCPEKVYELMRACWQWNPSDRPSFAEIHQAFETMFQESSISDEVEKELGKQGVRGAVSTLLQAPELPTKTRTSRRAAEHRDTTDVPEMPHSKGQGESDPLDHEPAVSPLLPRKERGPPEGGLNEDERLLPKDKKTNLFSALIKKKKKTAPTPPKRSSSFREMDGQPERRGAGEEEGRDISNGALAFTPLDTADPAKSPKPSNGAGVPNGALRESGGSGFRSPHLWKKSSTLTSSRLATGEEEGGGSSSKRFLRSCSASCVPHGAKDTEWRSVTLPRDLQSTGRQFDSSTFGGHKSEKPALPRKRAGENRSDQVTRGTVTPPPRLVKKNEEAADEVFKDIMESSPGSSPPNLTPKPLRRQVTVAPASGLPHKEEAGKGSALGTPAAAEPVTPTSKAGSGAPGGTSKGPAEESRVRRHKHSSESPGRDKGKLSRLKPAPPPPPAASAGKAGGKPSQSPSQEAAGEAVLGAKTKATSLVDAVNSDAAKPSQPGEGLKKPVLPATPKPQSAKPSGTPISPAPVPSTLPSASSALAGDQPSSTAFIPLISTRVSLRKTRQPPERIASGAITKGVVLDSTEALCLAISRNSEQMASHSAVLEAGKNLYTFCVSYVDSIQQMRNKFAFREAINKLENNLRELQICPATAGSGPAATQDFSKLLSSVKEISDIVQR

Structure (SMILES)	ring closure, yield of all isomers [1] [%]	activity at 1 µM (Ab1 (h)) [%]	activity at 1 µM (BTK (h)) [%]	activity at 1 µM (Flt3 (D835Y) (h)) [%]	activity at 1 µM (Flt3 (h)) [%]	activity at 1 µM (JAK3 (h)) [%]
CC(C)(C)OC(=O)Nc1cc2cc(c1)Nc1nccc(n1)-c1cccc(c1)COCC=CCOC2	50	–	–	–	–	–
CN1C/C=C/COCc2cccc(c2)-c2ccnc(n2)Nc2cc(cc(NC(=O)/C=C/CN3CCCC3)c2)C1 [XVI-25]	–	35	64	0	6	83
CN1C/C=C/COCc2cccc(c2)-c2ccnc(n2)Nc2cc(cc(NC(=O)/C=C/c3ccc(C#N)cc3)c2)C1 [XVI-27]	–	45	77	2	8	52
CN1C/C=C/COCc2cccc(c2)-c2ccnc(n2)Nc2cc(cc(NC(=O)/C=C/C(F)(F)F)c2)C1 [XVI-29]	–	60	78	3	10	36
CN1C/C=C/COCc2cccc(c2)-c2ccnc(n2)Nc2cc(cc(NC(=O)/C=C/CN3CCOCC3)c2)C1 [XVI-30]	–	55	66	2	7	61
C=CC(=O)Nc1cc2cc(c1)Nc1nccc(n1)-c1cccc(c1)COC/C=C/CN(C)C2 [XVI-31]	–	50	86	2	7	57
CN1C/C=C/COCc2cccc(c2)-c2ccnc(n2)Nc2cc(cc(NC(=O)/C=C/c3cnc[nH]3)c2)C1 [XVI-32]	–	50	82	0	5	30
O=C(/C=C/C(=O)N1CCCC1)Nc1cc2cc(c1)Nc1nccc(n1)-c1cccc(c1)COC/C=C/COC2 [XVI-33]	–	38	86	10	2	17
C1=C/COCc2ccc(O/C=C/CN3CCCC3)c(c2)Nc2nccc(n2)-c2cccc(c2)CCC/1 [XVI-34]	–	98	87	79	125	87
CCCC#CC(=O)Nc1cc2cc(c1)Nc1nccc(n1)-c1cccc(c1)COC/C=C/COC2 [XVII-2]	–	13	36	-1	5	36
O=C(C#CCN1CCOCC1)Nc1cc2cc(c1)Nc1nccc(n1)-c1cccc(c1)COC/C=C/COC2 [XVII-3]	–	8	17	0	2	14
CCCC#CC(=O)Nc1cc2cc(c1)Nc1nccc(n1)-c1cccc(c1)COC/C=C/CN(C)C2 [XVII-4]	–	52	80	3	7	83
CN1C/C=C/COCc2cccc(c2)-c2ccnc(n2)Nc2cc(cc(NC(=O)C#CCN3CCOCC3)c2)C1 [XVII-5]	–	45	72	1	4	60

— patent US20240425518A1, “N-MACROCYCLIC AMIDE COMPOUNDS, PREPARATION METHODS THEREOF AND APPLICATIONS THEREOF AS MEDICAMENTS” (Chengdu FANXI Biopharma Co., Ltd., priority 2023, published 2024)
